According to patent publication US9555115B2, “Pharmaceutical composition for oral administration with improved dissolution and/or absorption” (Taiho Pharmaceutical Co., Ltd., priority 2012, dated 2017):

Test: Compatibility test: related substances by HPLC after storage of mixed powders
Type: physicochemical
Description: 4-((1-methylpyrrol-2-yl)-carbonyl)-N-(4-(4-morpholin-1-yl-carbonylpiperidin-1-yl)-phenyl)-1-piperazinecarboxamide (compound 1) monohydrate and organic acids were respectively weighed in an amount of 0.5 g. Compound 1 monohydrate was mixed with each organic acid in a mortar to produce individual mixed powders. Subsequently, compound 1 monohydrate alone was weighed in an amount of 0.5 g to produce a compound 1 monohydrate powder according to the same method as in the production of the organic acid mixed powders.
Each organic acid mixed powder and each compound 1 monohydrate powder were weighed in amounts of 0.04 g and 0.02 g, respectively, in sealed and open glass bottles. These bottles were allowed to stand at 60° C. and a relative humidity of 60% for two weeks, and then the production of a compound 1 monohydrate related substance was examined by HPLC to evaluate stability. In the evaluation, a high-speed liquid chromatograph (Shimadzu Corporation) was used.
Detector: Ultraviolet spectrophotometer (measurement wavelength: 260 nm)
Column: Phenylated silica gel for liquid chromatography (3.5 μm) (XBridge Phenyl, Japan Waters, Inc.) was placed in a stainless pipe with an inner diameter of 4.6 mm and a length of 10 cm.
Column temperature: Constant temperature of around 40° C.
Mobile phase A: Phosphate buffer solution (pH 7)
Mobile phase B: Acetonitrile
Transfer of mobile phase: The concentration gradient is regulated by changing the mixing ratio of mobile phases A and B as shown in Table 1.

- Initial value Related Substances (initial value, before storage): 0.46 mass %
- Open Related Substances (open glass bottle, 60° C., relative humidity 60%, two weeks): 0.47 mass %
- Sealed Related Substances (sealed glass bottle, 60° C., relative humidity 60%, two weeks): 0.44 mass %
Structure (SMILES): Cn1cccc1C(=O)N1CCN(C(=O)Nc2ccc(N3CCC(C(=O)N4CCOCC4)CC3)cc2)CC1.O [Compound 1 monohydrate, 4-((1-methylpyrrol-2-yl)-carbonyl)-N-(4-(4-morpholin-1-yl-carbonylpiperidin-1-yl)-phenyl)-1-piperazinecarboxamide]
